Like-named read-outs stand apart in the source and are kept apart here.
Experiments:
[1] = PK after single s.c. administration via prefilled dual chamber syringe or separate injections; assay type: in vivo, LYD pigs; details: for AUC/Dose [mean ± SD]: single s.c. dose
Experimental: Female cross bred domestic pigs (Danish Landrace, Yorkshire and Duroc—LYD pigs), having a body weight of approximately 80-100 kg, were used for exploring PK profiles.
A full plasma concentration-time profile was obtained from each animal, from pre-dosing to 18 days post dosing.
Plasma was analysed by means of Luminescence Oxygen Channelling Immunoassay (LOCI) and Liquid Chromatography-Mass Spectrometry (LCMS) for semaglutide and cagrilintide, respectively. Non-compartmental pharmacokinetic analysis, using individual plasma concentration-time profiles, was performed.

[2] = Semaglutide solubility in the pH range 3.5-7.5 (FIG. 2); assay type: physicochemical
Experimental: FIG. 2 depicts semaglutide solubility in the pH range 3.5-7.5. […] Concentrations below ca. 0.6 mM indicate that no more than the analysed amount of semaglutide can be dissolved when the pH is below about 5.9.

[3] = dual chamber syringe versus separate injections

- AUC/Dose % increase (Co-dosing vs. dual-chamber syringe) [1, 3]: ~13%
- Cmax % increase (Co-dosing vs. dual-chamber syringe) [1, 3]: ~22%
- t½ % increase (Co-dosing vs. dual-chamber syringe) [1, 3]: ~0%
- AUC/Dose [mean ± SD] ([1]; group Dual chamber syringe 2.4/2.4): 1560 ± 229 kg·h/L
- AUC/Dose [mean ± SD] ([1]; group Mono (separate injections per title)): 1380 ± 78.1 kg·h/L
- solubility ([2]; pH above about 5.9, read-out: maximum solubility): > 600 µM
- solubility ([2]; pH below about 5.9, read-out: solubility (dissolved concentration)): < 600 µM
Structure (SMILES): CC[C@H](C)[C@H](NC(=O)[C@H](Cc1ccccc1)NC(=O)[C@H](CCC(=O)O)NC(=O)[C@H](CCCCNC(=O)COCCOCCNC(=O)COCCOCCNC(=O)CC[C@H](NC(=O)CCCCCCCCCCCCCCCCC(=O)O)C(=O)O)NC(=O)[C@H](C)NC(=O)[C@H](C)NC(=O)[C@H](CCC(N)=O)NC(=O)CNC(=O)[C@H](CCC(=O)O)NC(=O)[C@H](CC(C)C)NC(=O)[C@H](Cc1ccc(O)cc1)NC(=O)[C@H](CO)NC(=O)[C@H](CO)NC(=O)[C@@H](NC(=O)[C@H](CC(=O)O)NC(=O)[C@H](CO)NC(=O)[C@@H](NC(=O)[C@H](Cc1ccccc1)NC(=O)[C@@H](NC(=O)CNC(=O)[C@H](CCC(=O)O)NC(=O)C(C)(C)NC(=O)[C@@H](N)Cc1cnc[nH]1)[C@@H](C)O)[C@@H](C)O)C(C)C)C(=O)N[C@@H](C)C(=O)N[C@@H](Cc1c[nH]c2ccccc12)C(=O)N[C@@H](CC(C)C)C(=O)N[C@H](C(=O)N[C@@H](CCCNC(=N)N)C(=O)NCC(=O)N[C@@H](CCCNC(=N)N)C(=O)NCC(=O)O)C(C)C [semaglutide, N^6,26-{18-[N-(17-carboxyheptadecanoyl)-L-γ-glutamyl]-10-oxo-3,6,12,15-tetraoxa-9,18-diazaoctadecanoyl}-[8-(2-amino-2-propanoic acid),34-L-arginine]human glucagon-like peptide 1(7-37)]

Reference: patent US12527844B2, “Pharmaceutical formulations” (Novo Nordisk A/S, priority 2020, dated 2026)
